Substitutions are numbered along the chain they refer to.
Legend:
[1] = biological target: T1, His-TEV-AtPP01 ΔcTP L479N (SEQ ID NO: 372) (Arabidopsis thaliana, UniProt P55826, L479N); assay: activity rate of PPO variant in in vitro assay; type: biochemical; details: role: substrate; 1 uM protoporphyrinogen IX; no inhibitor
T1 construct: with cTPs removed; made in house; host or cells: E. coli BL21 (DE3), His GraviTrap, partially purified
T1 sequence (P55826 with tags, fused parts or gaps L479N): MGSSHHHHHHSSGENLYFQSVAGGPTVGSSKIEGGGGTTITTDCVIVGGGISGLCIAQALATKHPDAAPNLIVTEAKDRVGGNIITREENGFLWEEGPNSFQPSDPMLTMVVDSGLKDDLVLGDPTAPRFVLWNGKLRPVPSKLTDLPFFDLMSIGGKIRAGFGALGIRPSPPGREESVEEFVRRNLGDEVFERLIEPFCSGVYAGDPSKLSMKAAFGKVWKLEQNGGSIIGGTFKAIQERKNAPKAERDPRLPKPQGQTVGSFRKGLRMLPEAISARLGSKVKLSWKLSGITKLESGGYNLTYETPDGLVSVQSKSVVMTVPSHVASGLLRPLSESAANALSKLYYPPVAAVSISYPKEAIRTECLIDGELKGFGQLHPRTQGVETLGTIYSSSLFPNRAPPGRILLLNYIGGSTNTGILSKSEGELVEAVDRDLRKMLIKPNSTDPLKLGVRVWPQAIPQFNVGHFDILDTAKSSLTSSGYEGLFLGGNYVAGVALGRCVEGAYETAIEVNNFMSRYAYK
Description: (§1) A pET24 plasmid containing a DNA sequence encoding variants of AtPPO1 derived from Arabidopsis thaliana with cTPs removed and both a 6×His tag and TEV protease cleavage tag added at the N-terminus, codon-optimised for expression in E. coli, and under control of a T7 promoter, was synthesised by Twist Bioscience. The following variants were synthesised: WT AtPPO1 (SEQ ID NO: 370), AtPPO1 L479M (SEQ ID NO: 371), AtPPO1 L479N (SEQ ID NO: 372), AtPPO1 S305L Y426V (SEQ ID NO: 374) and AtPPO1 S305L Y426V L479M (SEQ ID NO: 373). This plasmid was expressed in E. coli BL21 (DE3) with 50 μg/mL kanamycin selection. 10 mL of overnight cultures grown at 37° C. were used to inoculate 1 L AIM (AIM-Terrific Broth Base including Trace elements, Formedium) in 2 L shake flasks. Cultures were grown at 37° C., 200 rpm for 3 hours and then overnight at 26° C. Cells were harvested centrifugation. 5-15 g of cell pellet was lysed in and resuspended in ratio of 1:1.5 in lysis buffer (20 mM Tris pH8, 500 mM sodium chloride, 10% glycerol, 1× complete Protease EDTA-free Inhibitor Tablet (Roche), 10 mM imidazole). The resuspension was sonicated at 75% using 10 cycles of 30 seconds, 40 seconds off. After sonication Triton X-100 was added to the lysates at a final concentration of 0.5%. The lysates were centrifuged at 20,000 rpm for 25 min at 4° C. Cleared lysates were loaded on His GraviTrap (Cytiva) columns, washed with 20 mL of lysis buffer and eluted in elution buffer (20 mM Tris pH8, 500 mM sodium chloride, 10% glycerol, 200 mM imidazole, 0.03% (v/v) Triton X-100). The eluate was desalted on a PD10 column and 2.5-3.2 mL was collected. Protein concentration was measured and calculated using the absorbance at 280 nm. Extracts were diluted 1 in 4 and 10 uL was analysed by SDS PAGE.
(§2) Partially purified Protoporphyrinogen Oxidase enzymes were assayed for activity using fluorescence adapted from the method of Shepherd & Dailey (Anal Biochem. 2005 344(1) 115-121). The assay was performed in black 384 well plates with a clear bottom and the total volume of the reaction mixture was 91 ul. The final assay mixture contained 100 mM K2HPO4 pH7.2, 1 mM Na2EDTA, 5 mM DTT, 20% glycerol (v/v), 0.05% Tween 20 (v/v), 1.1% DMSO (v/v), 1 uM protoporphyrinogen IX and 1.5 nM enzyme. Compounds were dissolved in DMSO at 1 mM and a 4-fold serial dilution carried out to give 8 rates. 1 ul was added to the assay mixture. This gave final compound concentrations of 11, 2.7, 0.69, 0.17, 0.04, 0.01, 0.002, 0.0007 uM. Enzyme and inhibitor were preincubated for 5 minutes prior to starting the reaction with the addition of the substrate. […] IC50s were calculated using GraphPad Prism 7.05 nonlinear regression (Table 6). Each compound was tested in duplicate.

[2] = biological target: T2, His-TEV-AtPP01 ΔcTP V030 (SEQ ID NO: 374) (Arabidopsis thaliana, UniProt P55826, S305L/Y426V); assay: activity rate of PPO variant in in vitro assay; type: biochemical; details: role: substrate; 1 uM protoporphyrinogen IX; no inhibitor
T2 construct: with cTPs removed; made in house; host or cells: E. coli BL21 (DE3), His GraviTrap, partially purified
T2 sequence (P55826 with tags, fused parts or gaps S305L/Y426V): T1 sequence (P55826 with tags, fused parts or gaps L479N) with S290L, Y411V, N464L
Description: as §1, §2

C=Cc1c2[nH]c(c1C)Cc1[nH]c(c(CCC(=O)O)c1C)Cc1[nH]c(c(C)c1CCC(=O)O)Cc1[nH]c(c(C)c1C=C)C2 [protoporphyrinogen IX] gave a Rate [1] of 13.2 rfu second^−1 pmole^−1 and a Rate [2] of 5.3 rfu second^−1 pmole^−1.
